Experiments:
ZEAMX = test: Post-emergence herbicidal effect and crop plant compatibility, greenhouse pot test; format: in vivo, Zea mays; conditions: one-leaf stage, rated visually after about 3 weeks vs untreated controls; for plant injury at 20 g/ha: read-out: Post-emergence effect at 20 g/ha against ZEAMX in %; for plant injury at 80 g/ha: read-out: Post-emergence effect at 80 g/ha against ZEAMX in %
Summary of the method: (§1)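 Visual % activity scored roughly 3 weeks post-spray against untreated plants, where 100% means death and 0% equals control. Plants were treated at the one-leaf stage, 2 to 3 weeks after sowing in sandy loam, at 20 to 320 g/ha.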

TRZAS = test: as above; format: in vivo, Triticum aestivum; conditions: 20 g/ha, one-leaf stage, rated visually after about 3 weeks vs untreated controls; for percent crop injury (phytotoxicity) to wheat, post-emergence at 20 g/ha: Triticum aestivum, 504 h, read-out: Post-emergence effect at 20 g/ha against TRZAS in %
Summary of the method: as §1

ABUTH = test: Post-emergence herbicidal effect, greenhouse pot test; format: in vivo, Abutilon theophrasti; conditions: visual rating about 3 weeks after treatment; for pest or weed control at 320 g/ha / Post-emergence effect against ABUTH: 320 g/ha
Summary of the method: (§2)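 Weeds sown in sandy loam, greenhouse-grown 2–3 weeks, then sprayed at one-leaf stage with WP or EC formulations in water plus 0.5% additive at 600 l/ha. Rates 20 to 320 g/ha. Visual rating after about 3 weeks versus untreated controls (100% = plants dead, 0% = like control).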

ALOMY = test: as above; format: in vivo, Alopecurus myosuroides; conditions: visual rating about 3 weeks after treatment; for pest or weed control at 320 g/ha: Alopecurus myosuroides, 504 h, read-out: Post-emergence effect against ALOMY
Summary of the method: as §2

AMARE = test: as above; format: in vivo, Amaranthus retroflexus; conditions: visual rating about 3 weeks after treatment; for pest or weed control at 320 g/ha / Post-emergence effect against AMARE: 320 g/ha
Summary of the method: as §2

DIGSA = test: as above; format: in vivo, Digitaria sanguinalis; conditions: visual rating about 3 weeks after treatment; for pest or weed control at 320 g/ha / Post-emergence effect against DIGSA: 320 g/ha
Summary of the method: as §2

ECHCG = test: as above; format: in vivo, Echinochloa crus-galli; conditions: for pest or weed control at 320 g/ha / pest or weed control at 80 g/ha: Echinochloa crus-galli, 504 h, read-out: Post-emergence effect against ECHCG in %
Summary of the method: as §2

LOLRI = test: as above; format: in vivo, Lolium rigidum; conditions: for pest or weed control at 320 g/ha: Lolium rigidum, 504 h, read-out: Post-emergence effect against LOLRI in %
Summary of the method: as §2

PHBPU = test: as above; format: in vivo, Ipomoea purpurea
Summary of the method: as §2

POLCO = test: as above; format: in vivo, Fallopia convolvulus
Summary of the method: as §2

SETVI = test: as above; format: in vivo, Setaria viridis; conditions: 320 g/ha; for pest or weed control at 320 g/ha: Setaria viridis, 504 h, read-out: Post-emergence effect against SETVI in %
Summary of the method: as §2

VERPE = test: as above; format: in vivo, Veronica persica; conditions: 320 g/ha; for pest or weed control at 320 g/ha: Veronica persica, 504 h, read-out: Post-emergence effect against VERPE in %
Summary of the method: as §2

VIOTR = test: as above; format: in vivo, Viola tricolor; conditions: for pest or weed control at 320 g/ha / pest or weed control at 80 g/ha: Viola tricolor, 504 h, read-out: Post-emergence effect against VIOTR in %
Summary of the method: as §2

KCHSC = test: as above; format: in vivo; conditions: for pest or weed control at 320 g/ha / pest or weed control at 80 g/ha: 504 h, read-out: Post-emergence effect against KCHSC in %
Summary of the method: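 Visual rating of activity against untreated plants (100% = plants died, 0% = no effect), done about 3 weeks after treatment. Compounds applied at 20–320 g/ha as aqueous spray (600 l/ha, 0.5% additive) from WP or EC formulations onto one-leaf-stage plants grown in sandy loam under greenhouse conditions.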

AVEFA = test: as above; format: in vivo, Avena fatua; conditions: visual rating about 3 weeks after treatment
Summary of the method: as §2

[1] = Abutilon theophrasti, 504 h, read-out: Post-emergence effect against ABUTH
[2] = Amaranthus retroflexus, 504 h, read-out: Post-emergence effect against AMARE
[3] = Digitaria sanguinalis, 504 h, read-out: Post-emergence effect against DIGSA
[4] = Ipomoea purpurea, 504 h, 320 g/ha, read-out: Post-emergence effect against PHBPU in %
[5] = Fallopia convolvulus, 504 h, 320 g/ha, read-out: Post-emergence effect against POLCO in %

## COC(Oc1nn(-c2cnccn2)c(-c2ccc(F)nc2)c1Cl)C(=O)O (stereo not shown) [Example I-42, {[4-Chloro-5-(6-fluoropyridin-3-yl)-1-(pyrazin-2-yl)-1H-pyrazol-3-yl]oxy}(methoxy)acetic acid]
ZEAMX; Zea mays, 504 h
  plant injury at 20 g/ha: 0%
  plant injury at 80 g/ha: 0%
ZEAMX; Zea mays, 504 h, 320 g/ha, read-out: Post-emergence effect at 320 g/ha against ZEAMX in %
  plant injury at 320 g/ha: 20%
TRZAS
  percent crop injury (phytotoxicity) to wheat, post-emergence at 20 g/ha: 0%
ABUTH; [1]
  pest or weed control at 320 g/ha: 80%
ALOMY; 320 g/ha
  pest or weed control at 320 g/ha: 90%
AMARE; [2]
  pest or weed control at 320 g/ha: 80%
DIGSA; [3]
  pest or weed control at 320 g/ha: 90%
ECHCG; 320 g/ha
  pest or weed control at 320 g/ha: 90%
LOLRI; 320 g/ha
  pest or weed control at 320 g/ha: 90%
PHBPU; [4]
  pest or weed control at 320 g/ha: 80%
POLCO; [5]
  pest or weed control at 320 g/ha: 80%
SETVI
  pest or weed control at 320 g/ha: 80%
VERPE
  pest or weed control at 320 g/ha: 80%
VIOTR; 320 g/ha
  pest or weed control at 320 g/ha: 90%
KCHSC; 320 g/ha
  pest or weed control at 320 g/ha: 90%

## COC(=O)CCOC(=O)C(OC)Oc1nn(-c2ncccc2F)c(-c2ccc(F)nc2)c1C1CC1 (single isomer, unassigned) [Example I-88]
ZEAMX
  Post-emergence effect at 20 g/ha against ZEAMX in %: 0%
  Post-emergence effect at 80 g/ha against ZEAMX in %: 0%
ZEAMX; 320 g/ha
  Post-emergence effect at 320 g/ha against ZEAMX in %: 0%
TRZAS
  Post-emergence effect at 20 g/ha against TRZAS in %: 20%
ABUTH
  Post-emergence effect against ABUTH: 80%
ALOMY; 80 g/ha
  Post-emergence effect against ALOMY: 90%
ALOMY; 320 g/ha
  Post-emergence effect against ALOMY: 90%
AMARE
  Post-emergence effect against AMARE: 80%
AVEFA; 80 g/ha
  Post-emergence effect against AVEFA: 90%
AVEFA; 320 g/ha
  Post-emergence effect against AVEFA: 90%
DIGSA
  Post-emergence effect against DIGSA: 80%
ECHCG; 20 g/ha, visual rating about 3 weeks after treatment
  Post-emergence effect against ECHCG: 80%
ECHCG; 80 g/ha
  Post-emergence effect against ECHCG in %: 90%
ECHCG; 320 g/ha
  Post-emergence effect against ECHCG in %: 90%
LOLRI; 80 g/ha
  Post-emergence effect against LOLRI in %: 90%
LOLRI; 320 g/ha
  Post-emergence effect against LOLRI in %: 90%
PHBPU; 320 g/ha
  Post-emergence effect against PHBPU in %: 90%
POLCO; 20 g/ha
  Post-emergence effect against POLCO in %: 80%
POLCO; 80 g/ha
  Post-emergence effect against POLCO in %: 90%
POLCO; 320 g/ha
  Post-emergence effect against POLCO in %: 90%
SETVI
  Post-emergence effect against SETVI in %: 90%
VERPE
  Post-emergence effect against VERPE in %: 90%
VIOTR; 80 g/ha
  Post-emergence effect against VIOTR in %: 80%
VIOTR; 320 g/ha
  Post-emergence effect against VIOTR in %: 90%
KCHSC; 80 g/ha
  Post-emergence effect against KCHSC in %: 80%
KCHSC; 320 g/ha
  Post-emergence effect against KCHSC in %: 80%

## COC(=O)C(OC)Oc1nn(-c2ncccc2F)c(-c2ccc(F)nc2)c1C1CC1 (stereo not shown) [Example I-107]
ZEAMX
  Post-emergence effect at 20 g/ha against ZEAMX in %: 0%
  Post-emergence effect at 80 g/ha against ZEAMX in %: 0%
TRZAS
  percent crop injury (phytotoxicity) to wheat, post-emergence at 20 g/ha: 20%
ABUTH
  Post-emergence effect against ABUTH: 80%
ALOMY; 320 g/ha
  Post-emergence effect against ALOMY: 100%
AMARE
  Post-emergence effect against AMARE: 80%
AVEFA; 320 g/ha
  Post-emergence effect against AVEFA: 90%
DIGSA
  Post-emergence effect against DIGSA: 80%
ECHCG; 320 g/ha
  Post-emergence effect against ECHCG in %: 90%
LOLRI; 320 g/ha
  Post-emergence effect against LOLRI in %: 90%
PHBPU; 80 g/ha
  Post-emergence effect against PHBPU in %: 80%
PHBPU; 320 g/ha
  Post-emergence effect against PHBPU in %: 80%
POLCO; 80 g/ha
  Post-emergence effect against POLCO in %: 90%
POLCO; 320 g/ha
  Post-emergence effect against POLCO in %: 90%
SETVI
  Post-emergence effect against SETVI in %: 90%
VERPE
  Post-emergence effect against VERPE in %: 80%
VIOTR; 320 g/ha
  Post-emergence effect against VIOTR in %: 90%
KCHSC; 320 g/ha
  pest or weed control at 320 g/ha: 90%

## CCOC(=O)C(OC)Oc1nn(-c2ncccc2F)c(-c2ccc(F)nc2)c1C(F)(F)F (stereo not shown) [Example I-55]
ZEAMX; Zea mays, 504 h
  plant injury at 20 g/ha: 0%
  plant injury at 80 g/ha: 0%
TRZAS
  percent crop injury (phytotoxicity) to wheat, post-emergence at 20 g/ha: 20%
ABUTH; Abutilon theophrasti, 504 h, 80 g/ha, read-out: Post-emergence effect against ABUTH
  pest or weed control at 80 g/ha: 80%
ABUTH; [1]
  pest or weed control at 320 g/ha: 90%
ALOMY; 320 g/ha
  pest or weed control at 320 g/ha: 90%
AVEFA; Avena fatua, 504 h, 80 g/ha, read-out: Post-emergence effect against AVEFA
  pest or weed control at 80 g/ha: 90%
AVEFA; Avena fatua, 504 h, 320 g/ha, read-out: Post-emergence effect against AVEFA
  pest or weed control at 320 g/ha: 90%
DIGSA; Digitaria sanguinalis, 504 h, 80 g/ha, read-out: Post-emergence effect against DIGSA
  pest or weed control at 80 g/ha: 90%
DIGSA; [3]
  pest or weed control at 320 g/ha: 90%
ECHCG; 80 g/ha
  pest or weed control at 80 g/ha: 90%
ECHCG; 320 g/ha
  pest or weed control at 320 g/ha: 90%
LOLRI; 320 g/ha
  pest or weed control at 320 g/ha: 90%
PHBPU; Ipomoea purpurea, 504 h, 20 g/ha, read-out: Post-emergence effect against PHBPU in %
  pest or weed control at 20 g/ha: 80%
PHBPU; Ipomoea purpurea, 504 h, 80 g/ha, read-out: Post-emergence effect against PHBPU in %
  pest or weed control at 80 g/ha: 80%
PHBPU; [4]
  pest or weed control at 320 g/ha: 90%
POLCO; Fallopia convolvulus, 504 h, 80 g/ha, read-out: Post-emergence effect against POLCO in %
  pest or weed control at 80 g/ha: 80%
POLCO; [5]
  pest or weed control at 320 g/ha: 90%
SETVI
  pest or weed control at 320 g/ha: 80%
VERPE
  pest or weed control at 320 g/ha: 90%
VIOTR; 80 g/ha
  pest or weed control at 80 g/ha: 80%
VIOTR; 320 g/ha
  pest or weed control at 320 g/ha: 90%
KCHSC; 80 g/ha
  pest or weed control at 80 g/ha: 90%
KCHSC; 320 g/ha
  pest or weed control at 320 g/ha: 90%

## CCOC(=O)C(OC)Oc1nn(-c2cnccn2)c(-c2ccc(F)nc2)c1Cl (stereo not shown) [Example I-46]
ZEAMX; Zea mays, 504 h
  plant injury at 20 g/ha: 0%
  plant injury at 80 g/ha: 20%
TRZAS
  percent crop injury (phytotoxicity) to wheat, post-emergence at 20 g/ha: 0%
ABUTH; [1]
  pest or weed control at 320 g/ha: 80%
ALOMY; 320 g/ha
  pest or weed control at 320 g/ha: 90%
AMARE; Amaranthus retroflexus, 504 h, 80 g/ha, read-out: Post-emergence effect against AMARE
  pest or weed control at 80 g/ha: 80%
AMARE; [2]
  pest or weed control at 320 g/ha: 80%
DIGSA; [3]
  pest or weed control at 320 g/ha: 80%
ECHCG; 80 g/ha
  pest or weed control at 80 g/ha: 80%
ECHCG; 320 g/ha
  pest or weed control at 320 g/ha: 90%
LOLRI; 320 g/ha
  pest or weed control at 320 g/ha: 90%
PHBPU; [4]
  pest or weed control at 320 g/ha: 90%
POLCO; [5]
  pest or weed control at 320 g/ha: 80%
SETVI
  pest or weed control at 320 g/ha: 90%
VERPE
  pest or weed control at 320 g/ha: 90%
VIOTR; 80 g/ha
  pest or weed control at 80 g/ha: 90%
VIOTR; 320 g/ha
  pest or weed control at 320 g/ha: 90%
KCHSC; 80 g/ha
  pest or weed control at 80 g/ha: 80%
KCHSC; 320 g/ha
  pest or weed control at 320 g/ha: 90%

Reference: patent US20240391862A1, “(1,4,5-TRISUBSTITUTED-1H-PYRAZOL-3-YL)OXY-2-ALKOXY ALKYL ACIDS AND THEIR DERIVATIVES, THEIR SALTS AND THEIR USE AS HERBICIDAL AGENTS” (Bayer AKtiengesellschaft, priority 2021, published 2024)
